This note sets out measurements from patent publication EP0498222A1, “Novel peptides” (SUMITOMO CHEMICAL COMPANY LIMITED, priority 1991, dated 1992).

The subject of test [1] is last instar larvae of Pseudaletia separata. In words: Effect on growth (body weight) of last instar larvae after injection. The test is classed as in vivo. The following applies: 7 picomoles injected on day 0, day 1 and day 2 of last instar; weight checked until day 3; control about 2.5 times day 0 weight on day 3. The protocol:
To examine the effect of peptide I-a on the growth of last instar larvae of Pseudaletia separata, last instar larvae of P. separata were injected with 7 picomoles of peptide I-a for consecutive three days (day 0, day 1 and day 2). They were reared on an artificial diet and the weight of each larva was checked until day 3. […] The open circles ( ⃝) indicate the body weights of the last instar larvae injected with 7 picomoles of peptide I-a on day 0, day 1 and day 2 while the closed circles (●) indicate the body weights of last instar larvae injected with Ringer's solution on day 0, day 1 and day 2.

Test [2] has as its system unparasitized last instar larvae of Pseudaletia separata. In words: Insect development controlling activity (growth stage checked at 24-hour intervals). The following applies: 7 picomoles injected on day 1 and day 2; control Ringer's solution. The format is in vivo. The protocol:
The purified peptide I-a was dissolved with Ringer's solution and injected, at a dose of 7 picomoles, into unparasitized last instar larvae of Pseudaletia separata on day 1 and day 2. Then the growth stage (larva, prepupa, pupa, or dead) of each larva was checked at 24-hour intervals and the number of individuals in each stage was recorded. Control larvae were injected with Ringer's solution alone.

The subject of the next test is JH esterase. Description: JH esterase activity assay of hemolymph from injected larvae, (10-3H)JH I as substrate. The following applies: predetermined doses injected on day 1 and day 2; hemolymph collected on day 3. The test is classed as in vivo, Pseudaletia separata. The protocol:
The purified peptide I-a was diluted with Ringer's solution and injected, at a predetermined dose, into unparasitized last instar larvae of Pseudaletia separata on day 1 and day 2. The larvae were further reared on an artificial diet. On day 3, hemolymph was prepared from the larvae and centrifuged (500 x g, 4°C, 5 minutes). The supernatant thus collected was subjected to JH esterase activity assay. (10-³H)JH I was used as the substrate for activity assay and the JH-metabolizing activity was estimated based on the proportion of JH acid to the total product formed under the action of JH esterase.

The structures appear in SMILES notation. Positions of bridges follow the written chain, without caps; N, C: chain ends. Residues, ends and D or L forms follow the SMILES beside them.

In the case of `CSCC[C@@H]1NC(=O)[C@H](Cc2ccc(O)cc2)NC(=O)CNC(=O)[C@H](C)NC(=O)[C@H](C(C)C)NC(=O)[C@@H](NC(=O)CNC(=O)CNC(=O)[C@H](CO)NC(=O)[C@H](Cc2ccccc2)NC(=O)[C@H](CC(N)=O)NC(=O)[C@@H](N)CCC(=O)O)CSSC[C@@H](C(=O)N[C@@H](CCCCN)C(=O)N2CCC[C@H]2C(=O)N[C@H](C(=O)N[C@@H](Cc2ccccc2)C(=O)N[C@@H](Cc2ccc(O)cc2)C(=O)N[C@@H](CCC(N)=O)C(N)=O)[C@@H](C)O)NC(=O)[C@H](CCCNC(=N)N)NC(=O)CNC(=O)[C@H](CC(=O)O)NC(=O)[C@@H]2CCCN2C(=O)[C@H]([C@@H](C)O)NC(=O)[C@H](CCCNC(=N)N)NC1=O` [peptide I-a] (H-ENFSGGCVAGYMRTPDGRCKPTFYQ-NH2; disulfide 7-19), the body weight change result in test [1] is “only slight increases in body weight”. In test [2], the “prepupal stage came later than in control larvae” value was found to be 2 days and the “pupation later than in control larvae” value is “more than 2 days”. In addition, the JH esterase activity entry in the test on JH esterase was “repressed the JH esterase activity in a dose dependent manner”.
